Reference: ChEMBL document CHEMBL1201862, “PubChem BioAssay data set” (2004)
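Test compounds were applied to cells in 96-well plates for 48 hours at 5 doses. GI50 marks 50% less growth.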 Activity calls are given as the source filed them. Rule as the data show it: active = GI50 up to about 1.1 µM and inactive = higher.

Tests used:
Test in all cases: inhibition of tumour cell growth, NCI panel, 48 h
NCI-H23 = test system: NCI-H23
KM12 = test system: KM12
SK-MEL-2 = test system: SK-MEL-2
NCI/ADR-RES = test system: NCI/ADR-RES
RPMI-8226 = test system: RPMI-8226
SF-295 = test system: SF-295
SNB-75 = test system: SNB-75
OVCAR-8 = test system: OVCAR-8
HOP-62 = test system: HOP-62
U-251 = test system: U-251
Malme-3M = test system: Malme-3M
LOX IMVI = test system: LOX IMVI
PC-3 = test system: PC-3
MOLT-4 = test system: MOLT-4
COLO 205 = test system: COLO 205
SF-268 = test system: SF-268
T47D = test system: T47D
M14 = test system: M14
UACC-62 = test system: UACC-62

Measured: GI50

C(=N\c1ccc(-c2nc3ccccc3[nH]2)cc1)/c1cccs1
inactive: NCI-H23 > 100 µM | KM12 58.1 µM | SK-MEL-2 > 100 µM | NCI/ADR-RES 43 µM | RPMI-8226 52 µM | SF-295 75.7 µM | SNB-75 81.1 µM | OVCAR-8 49.9 µM | HOP-62 > 100 µM | U-251 89.7 µM | Malme-3M > 100 µM | LOX IMVI > 100 µM | PC-3 73.1 µM | MOLT-4 29.9 µM | COLO 205 97.5 µM | SF-268 > 100 µM | T47D 31.9 µM | M14 > 100 µM

O=C1Oc2cc(O)cc(/C=C/c3ccc(O)cc3)c2[C@@]12c1c(O)cc(O)cc1OC2c1cccc(O)c1 (stereo partly drawn)
inactive: NCI-H23 24.7 µM | KM12 25.6 µM | UACC-62 25.3 µM | SK-MEL-2 24.2 µM | NCI/ADR-RES 67.1 µM | RPMI-8226 13.4 µM | SF-295 32.2 µM | SNB-75 52.2 µM | OVCAR-8 41.2 µM | HOP-62 20.3 µM | U-251 32.9 µM | Malme-3M 33.4 µM | LOX IMVI 23.3 µM | PC-3 30.9 µM | MOLT-4 42.8 µM | COLO 205 26 µM | SF-268 36.6 µM | T47D 44.8 µM | M14 28.6 µM

CCOc1cc(C2SCC(=O)N2c2nc3cc4sc(N5C(=O)CSC5c5ccc(O)c(OCC)c5)nc4cc3s2)ccc1O (stereo not drawn)
inactive: NCI-H23 9.59 µM | KM12 45.3 µM | UACC-62 98.6 µM | SK-MEL-2 > 100 µM | NCI/ADR-RES 8.2 µM | RPMI-8226 32.5 µM | SF-295 > 100 µM | SNB-75 > 100 µM | OVCAR-8 > 68.7 µM | HOP-62 > 100 µM | U-251 26.5 µM | Malme-3M > 68.9 µM | LOX IMVI 38.3 µM | PC-3 58.5 µM | MOLT-4 4.61 µM | COLO 205 4.8 µM | SF-268 > 68.2 µM | T47D 40.2 µM | M14 > 100 µM

CC(C)(C)COC1C2(OCCO2)C2CCC1(C)C2(C)C (stereo not drawn)
inactive: NCI-H23 52.5 µM | KM12 20 µM | UACC-62 54.7 µM | SK-MEL-2 23.4 µM | NCI/ADR-RES 42 µM | RPMI-8226 19.9 µM | SF-295 18.7 µM | SNB-75 24.1 µM | OVCAR-8 23.1 µM | HOP-62 22.1 µM | U-251 18 µM | Malme-3M 29 µM | LOX IMVI 19.2 µM | PC-3 23.1 µM | MOLT-4 21.4 µM | COLO 205 28.6 µM | SF-268 50.2 µM | T47D 23.8 µM | M14 44 µM

CCOC(=O)/C(C(N)=O)=C(O)/C(O)=C(\Br)C(=O)c1ccccc1
inactive: NCI-H23 18.8 µM | KM12 18.1 µM | UACC-62 17.8 µM | SK-MEL-2 18.9 µM | NCI/ADR-RES 25.8 µM | RPMI-8226 9.25 µM | SF-295 56.8 µM | SNB-75 17.3 µM | OVCAR-8 19.6 µM | HOP-62 20.5 µM | U-251 18.2 µM | Malme-3M 15.1 µM | LOX IMVI 15.6 µM | PC-3 17.4 µM | MOLT-4 2.99 µM | COLO 205 17.3 µM | SF-268 19.5 µM | T47D 23.1 µM | M14 14.6 µM

O=Nn1c2ccccc2c2ccccc21
inactive: NCI-H23 58.2 µM | KM12 34.3 µM | UACC-62 45.7 µM | SK-MEL-2 61.7 µM | NCI/ADR-RES 52.8 µM | RPMI-8226 70.1 µM | SF-295 42.9 µM | SNB-75 75 µM | OVCAR-8 > 100 µM | HOP-62 > 100 µM | U-251 92.9 µM | Malme-3M 93.3 µM | LOX IMVI 48.1 µM | PC-3 42.8 µM | MOLT-4 55.1 µM | COLO 205 14.1 µM | SF-268 > 100 µM | T47D 66.5 µM | M14 74.1 µM

C(=N\c1ccc(-c2nc3ccccc3[nH]2)cc1)/c1ccc[nH]1
inactive: NCI-H23 > 100 µM | KM12 44.6 µM | UACC-62 55.3 µM | SK-MEL-2 > 100 µM | NCI/ADR-RES > 100 µM | RPMI-8226 37.8 µM | SNB-75 > 100 µM | OVCAR-8 83.9 µM | HOP-62 3.94 µM | Malme-3M > 100 µM | LOX IMVI 76.6 µM | PC-3 70.8 µM | MOLT-4 28.8 µM | COLO 205 41.3 µM | SF-268 30.3 µM | T47D 40.3 µM | M14 > 100 µM

Oc1nc2nnc(COc3ccc(Cl)cc3Cl)n2nc1Cc1ccccc1
inactive: NCI-H23 43 µM | KM12 > 100 µM | SK-MEL-2 > 100 µM | NCI/ADR-RES 43.1 µM | RPMI-8226 > 100 µM | SF-295 32.3 µM | SNB-75 16 µM | OVCAR-8 26.1 µM | HOP-62 47.2 µM | U-251 23.8 µM | Malme-3M > 100 µM | LOX IMVI > 100 µM | PC-3 > 100 µM | MOLT-4 > 100 µM | COLO 205 > 100 µM | SF-268 63.4 µM | T47D 37.8 µM | M14 > 100 µM
